In PMC12397910:

Legend:
[1] = system: dsBcl3 G6/8A (DNA, duplex) CAGGAAACCCCTGGGGCGTACGGGTGGCCCCGGGGGGGCCGGAGGCGGAGAGGCGGGCGGCCGGCACCGCCCCGGCCGACAAAAGTCCCT/AGGGACTTTTGTCGGCCGGGGCGGTGCCGGCCGCCCGCCTCTCCGCCTCCGGCCCCCCCGGGGCCACCCGTACGCCCCAGGGGTTTCCTG; experiment: NMM fluorescence turn-on (610 nm); settings: 1 mM K+ (KCl); 10% PEG8000; also 100 mM KCl without PEG; 25 °C; 1 μM NMM, 2 μM DNA; no peak
[2] = system: dsBcl3 WT (90-bp dsBcl3-G4) (DNA, G4) CAGGAAACCCCTGGGGCGTACGGGTGGCCCCGGGGGGGCCGGGGGCGGGGAGGCGGGCGGCCGGCACCGCCCCGGCCGACAAAAGTCCCT/AGGGACTTTTGTCGGCCGGGGCGGTGCCGGCCGCCCGCCTCCCCGCCCCCGGCCCCCCCGGGGCCACCCGTACGCCCCAGGGGTTTCCTG; experiment: NMM fluorescence turn-on (610 nm); settings: 1 mM K+ (KCl); 10% PEG8000; also 100 mM KCl without PEG; 25 °C; 1 μM NMM, 2 μM DNA
[3] = system: dsBcl3 GI/IVA (DNA, duplex) CAGGAAACCCCTGGGGCGTACGGGTGGCCCCGGAAAGGCCGGGGGCGGGGAGGCAAACGGCCGGCACCGCCCCGGCCGACAAAAGTCCCT/AGGGACTTTTGTCGGCCGGGGCGGTGCCGGCCGTTTGCCTCCCCGCCCCCGGCCTTTCCGGGGCCACCCGTACGCCCCAGGGGTTTCCTG; experiment: NMM fluorescence turn-on (610 nm); settings: 1 mM K+ (KCl); 10% PEG8000; also 100 mM KCl without PEG; 25 °C; 1 μM NMM, 2 μM DNA; no peak
[4] = system: Bcl3 G6A (DNA, G4) CGGGGGGGCCGGAGGCGGGGAGGCGGGCGG; experiment: CD melting at 284 nm; settings: 100 mM K+ (KCl); 10 mM Tris-HCl pH 7.5; 20 μM ligand, ligand:G4 2:1; stabilised
[5] = system: Bcl3 GI/IVA (DNA, G4) CGGAAAGGCCGGGGGCGGGGAGGCAAACGG; experiment: CD melting at 284 nm; settings: 100 mM K+ (KCl); 10 mM Tris-HCl pH 7.5; 20 μM ligand, ligand:G4 2:1; stabilised
[6] = system: Bcl3 G6/8A (DNA, G4) CGGGGGGGCCGGAGGCGGAGAGGCGGGCGG; experiment: CD melting at 284 nm; settings: 100 mM K+ (KCl); 10 mM Tris-HCl pH 7.5; 20 μM ligand, ligand:G4 2:1; stabilised
[7] = system: Bcl3 promoter WT (30-nt, G-rich positive strand) (DNA, G4) CGGGGGGGCCGGGGGCGGGGAGGCGGGCGG; experiment: ThT fluorescence turn-on (490 nm); settings: 100 mM K+ (KCl); 10 mM Tris-HCl pH 7.5, 25 °C; 0.5 μM ThT, 1 μM DNA
[8] = system: Bcl3 G6/8A (DNA, G4) CGGGGGGGCCGGAGGCGGAGAGGCGGGCGG; experiment: CD melting at 264 nm; settings: 100 mM K+ (KCl); 10 mM Tris-HCl pH 7.5; 20 μM ligand, ligand:G4 2:1; stabilised
[9] = system: Bcl3 G6A (DNA, G4) CGGGGGGGCCGGAGGCGGGGAGGCGGGCGG; experiment: CD melting at 264 nm; settings: 100 mM K+ (KCl); 10 mM Tris-HCl pH 7.5; 20 μM ligand, ligand:G4 2:1; stabilised
[10] = system: Bcl3 GI/IVA (DNA, G4) CGGAAAGGCCGGGGGCGGGGAGGCAAACGG; experiment: CD melting at 264 nm; settings: 100 mM K+ (KCl); 10 mM Tris-HCl pH 7.5; 20 μM ligand, ligand:G4 2:1; stabilised
[11] = target: T1, SP1 (UniProt P08047 1-785); experiment: EMSA; annealed with KCl; Kd only in Fig S13B; EMSA: 10 mM HEPES-NaOH pH 7.3, 50 mM KCl, 5 mM MgCl2, 0.5 mM DTT, 5% glycerol, 0.5 mg/mL BSA, 1 h, gel at 4 C; BLI: PBS, room temperature; oligos annealed in 10 mM Tris-HCl pH 7.5 +/- 100 mM KCl; settings: protein: commercial; G4
[12] = target: T1, SP1; experiment: EMSA; annealed without KCl; EMSA: 10 mM HEPES-NaOH pH 7.3, 50 mM KCl, 5 mM MgCl2, 0.5 mM DTT, 5% glycerol, 0.5 mg/mL BSA, 1 h, gel at 4 C; BLI: PBS, room temperature; oligos annealed in 10 mM Tris-HCl pH 7.5 +/- 100 mM KCl; settings: protein: commercial; single strand
[13] = target: T1, SP1; experiment: BLI; annealed in 100 mM KCl; local 1:1 fit at 457 nM SP1; not truly 1:1; EMSA: 10 mM HEPES-NaOH pH 7.3, 50 mM KCl, 5 mM MgCl2, 0.5 mM DTT, 5% glycerol, 0.5 mg/mL BSA, 1 h, gel at 4 C; BLI: PBS, room temperature; oligos annealed in 10 mM Tris-HCl pH 7.5 +/- 100 mM KCl; settings: protein: commercial; label: 5' biotin (BLI); G4, parallel, intra- and intermolecular
[14] = target: T1, SP1; experiment: EMSA; annealed in 100 mM KCl; Hill 4.42; EMSA: 10 mM HEPES-NaOH pH 7.3, 50 mM KCl, 5 mM MgCl2, 0.5 mM DTT, 5% glycerol, 0.5 mg/mL BSA, 1 h, gel at 4 C; BLI: PBS, room temperature; oligos annealed in 10 mM Tris-HCl pH 7.5 +/- 100 mM KCl; settings: protein: commercial; label: 5' biotin (BLI); G4, parallel, intra- and intermolecular
[15] = target: T1, SP1; experiment: EMSA; annealed in KCl, purified Inter 1; Hill 3.53; EMSA: 10 mM HEPES-NaOH pH 7.3, 50 mM KCl, 5 mM MgCl2, 0.5 mM DTT, 5% glycerol, 0.5 mg/mL BSA, 1 h, gel at 4 C; BLI: PBS, room temperature; oligos annealed in 10 mM Tris-HCl pH 7.5 +/- 100 mM KCl; settings: protein: commercial

T1 sequence (P08047 whole entry): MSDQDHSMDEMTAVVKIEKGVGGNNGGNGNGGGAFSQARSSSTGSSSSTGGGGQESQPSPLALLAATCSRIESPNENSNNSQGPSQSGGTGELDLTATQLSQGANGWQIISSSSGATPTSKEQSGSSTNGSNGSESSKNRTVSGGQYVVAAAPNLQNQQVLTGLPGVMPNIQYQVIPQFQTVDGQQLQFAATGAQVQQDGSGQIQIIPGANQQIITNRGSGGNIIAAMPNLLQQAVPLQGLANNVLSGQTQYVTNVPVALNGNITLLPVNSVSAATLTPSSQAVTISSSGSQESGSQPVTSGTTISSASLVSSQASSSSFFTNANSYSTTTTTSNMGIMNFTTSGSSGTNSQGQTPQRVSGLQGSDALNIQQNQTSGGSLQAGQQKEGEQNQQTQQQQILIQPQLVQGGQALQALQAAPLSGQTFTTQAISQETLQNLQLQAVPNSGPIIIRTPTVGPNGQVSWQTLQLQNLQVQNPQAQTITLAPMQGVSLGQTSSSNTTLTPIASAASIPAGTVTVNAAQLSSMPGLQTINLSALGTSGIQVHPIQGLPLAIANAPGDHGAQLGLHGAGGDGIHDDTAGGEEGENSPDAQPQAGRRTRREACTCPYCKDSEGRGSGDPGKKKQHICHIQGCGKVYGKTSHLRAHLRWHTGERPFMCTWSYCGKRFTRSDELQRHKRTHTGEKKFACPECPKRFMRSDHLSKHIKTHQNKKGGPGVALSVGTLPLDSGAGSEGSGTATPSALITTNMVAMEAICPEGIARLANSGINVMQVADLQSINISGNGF

With `CCc1c(C)c2cc3nc(cc4nc(cc5c(CC)c(C)c(cc1[nH]2)n5C)C(C)=C4CCC(=O)O)C(CCC(=O)O)=C3C` the binding [1] was “no”, the binding [2] was “yes” and the binding [3] was “no”.

`C[n+]1ccc(-c2c3nc(c(-c4cc[n+](C)cc4)c4ccc([nH]4)c(-c4cc[n+](C)cc4)c4nc(c(-c5cc[n+](C)cc5)c5ccc2[nH]5)C=C4)C=C3)cc1` was tested, and the binding [4] was “yes”, the binding [5] was “yes” and the binding [6] was “yes”.

For `Cc1ccc2c(c1)sc(-c1ccc(N(C)C)cc1)[n+]2C`, the binding [7] was “yes”.

For `NCCOc1cc(C(=O)Nc2cc(OCCN)c3ccccc3n2)nc(C(=O)Nc2cc(OCCN)c3ccccc3n2)c1`, the binding [8] was “yes”, the binding [9] was “yes” and the binding [10] was “yes”.

GGGUCCGGGCCGGGUGGG (structured_RNA) [G4 RNA (KCl)]: binds [11].

GGGUCCGGGCCGGGUGGG (ssRNA) [G4 RNA annealed without KCl]: binds [12].

In the case of GGGGGCCGGGGGCGGGGAGGCGGG (structured_DNA) [Bcl3 WT 24-nt, annealed with KCl (G4)], the Kd [13] is reported as 2.36 nM and the Kd [14] is reported as 19.1 nM.

AGAGACCGGGGGCGGGGAGACGAG (structured_DNA) [PCNG4 Inter 1, annealed with KCl] showed a Kd [15] of 24.5 nM.
